In patent US20030229053A1, “Compounds and methods for the treatment or prevention of flavivirus infections” (Shire BioChem Inc., priority 2001, published 2003):
pIC50: −log10 of the molar value.

These compounds were tested against HCV NS5B RNA-dependent RNA polymerase (Hepatitis C virus genotype 1b, UniProt P26663) (assay: In vitro RNA-dependent RNA polymerase assay (Assay 1), polyA/oligo dT, TCA precipitation). Conditions: not given.
Chain of HCV NS5B RNA-dependent RNA polymerase (P26663 2420-3010 limits assumed): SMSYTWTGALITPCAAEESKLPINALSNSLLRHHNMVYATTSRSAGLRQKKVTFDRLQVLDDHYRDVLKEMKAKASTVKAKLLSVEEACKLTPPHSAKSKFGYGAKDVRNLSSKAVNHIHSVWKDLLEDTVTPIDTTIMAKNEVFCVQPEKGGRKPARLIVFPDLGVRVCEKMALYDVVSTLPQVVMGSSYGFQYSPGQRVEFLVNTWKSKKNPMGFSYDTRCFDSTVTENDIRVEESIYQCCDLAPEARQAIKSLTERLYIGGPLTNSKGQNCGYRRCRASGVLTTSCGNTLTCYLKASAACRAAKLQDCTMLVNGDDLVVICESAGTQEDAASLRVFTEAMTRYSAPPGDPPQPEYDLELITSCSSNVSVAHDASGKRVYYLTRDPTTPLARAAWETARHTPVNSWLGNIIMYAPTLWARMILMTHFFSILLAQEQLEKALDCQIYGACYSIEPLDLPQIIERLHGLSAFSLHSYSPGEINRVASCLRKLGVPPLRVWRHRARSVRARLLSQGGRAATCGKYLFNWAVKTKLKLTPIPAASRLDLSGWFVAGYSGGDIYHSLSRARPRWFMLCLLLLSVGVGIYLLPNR
Format: biochemical
Description: Purification of Recombinant NS5B Using Fast Protein Liquid Chromatography (FPLC):
Soluble NS5B protein in the S3 fraction was diluted to lower the NaCl concentration to 300 mM, then it incubated batchwise with DEAE sepharose beads (Amersham-Pharmacia) for 2 hrs at 4° C., as described by Behrens et al. (1996). Unbound material was cleared by centrifugation for 15 min at 4° C., at 25,000 rpm using a SW41 rotor (Beckman). The supernatant was further diluted to lower the NaCl concentration to 200 mM and subsequently loaded, with a flow rate of 1 ml/min, on a 5 ml HiTrap® heparin column (Amersham-Pharmacia) connected to an FPLC® system (Amersham-Pharmacia). Bound proteins were eluted in 1 ml fractions, using a continuous NaCl gradient of 0.2 to 1 M, over a 25 ml volume. NS5B-containing fractions were identified by sodium dodecyl sulfate polyacrylamide gel electrophoresis (SDS-PAGE), followed by western blotting using the anti-NS5B antiserum at a dilution of 1:2000. Positive fractions were pooled and the elution buffer was exchanged against a 50 mM NaPO4 pH 7.0, 20% glycerol, 0.5% triton X-100 and 10 mM DTT, using a PD-10 column (Amersham-Pharmacia). The sample was then loaded onto a 1 ml HiTrap® SP column (Amersham-Pharmacia), with a flow rate of 0.1 ml/min. Bound proteins were eluted using a continuous 0 to 1 M NaCl gradient over a 15 ml volume. Eluted fractions were analyzed by SDS-PAGE and western blotting. Alternatively, proteins were visualized, following SDS-PAGE, by silver staining using the Silver Stain Plus kit (BioRad) as described by the manufacturer. […]
In vitro RNA-dependent RNA Polymerase Assays Used to Evaluate Biaryl Analogues (Assay 1):
RdRp assays were conducted using the homopolymeric template/primer polyA/oligo dT. All RdRp reactions were performed in a total volume of 50 μl, and in a basic buffer consisting of 20 mM Tris-HCl pH 7.5, 1 mM DTT, 50 mM NaCl, 5 mM MgCl2, 0.5 μCi […] (3000 Ci/mmol), 15 μM cold UTP and 20 U RNasin (Promega). Standard HCV RdRp reactions contained 200 ng of purified NS5B protein. PolyA RNAs (Amersham-Pharmacia) was resuspended at 400 ng/μl. The primer oligodT15 (Canadian life technologies) was diluted to a concentration of […] (7.6 ng/μl). Templates and primers were mixed volume to volume, denatured at 95° C. for 5 min and annealed at 37° C. for 10 min. Following a two hour incubation at 22° C., reactions were stopped by the addition of 100 μg of sonicated salmon sperm DNA (Life Technologies) and 1 ml of 10% trichloroacetic acid-0.5% tetrasodium pyrophosphate (TCA-PPi). Nucleic acids were precipitated at 4° C. for 30 min after which samples were filtered on GF/C glass microfiber filters (Millipore). Membranes were subsequently washed with 25 ml of a 1% TCA-0.1% PPi solution, then air dried. Incorporated radioactivity was quantified using a liquid scintillation counter (1450-Microbeta, Wallac). Results are shown in Table 1, in the column indicated as Assay 1.
Compound `O=C(O)[C@H](Cc1ccccc1)N(Cc1cccc(Br)c1)C(=O)c1ccc(Cl)cc1Br` [compound #36, (2s)-2-[(3-Bromo-benzyl)-(2-bromo-4-chloro-benzoyl)-amino]-3-phenyl-propionic acid] has a pIC50 greater than 5.30. For `Cc1cc(Cl)ccc1C(=O)N(Cc1cccc(-c2cc3ccccc3o2)c1)[C@@H](Cc1ccccc1)C(=O)O` [compound #48, (2s)-2-[(3-Benzofuran-2-yl-benzyl)-(4-chloro-2-methyl-benzoyl)-amino]-3-phenyl-propionic acid], the pIC50 was greater than 5.30. With `O=C(O)[C@H](Cc1ccccc1)N(Cc1cccc(F)c1)C(=O)c1ccc(Cl)cc1Cl` [compound #51, (2s)-2-[(2,4-Dichloro-benzoyl)-(3-fluoro-benzyl)-amino]-3-phenyl-propionic acid] the pIC50 was greater than 5.30.

Same assay, conditions: polyA/oligo dT template/primer, 200 ng NS5B, 2 h at 22° C.; read-out: RNA pol Assay 1 IC50 (μm)
For `Cc1ccc(C(=O)N(Cc2cccc(Br)c2)[C@@H](Cc2ccccc2)C(=O)O)c(C)c1` [compound #28, (2s)-2-[(3-Bromo-benzyl)-(2,4-dimethyl-benzoyl)-amino]-3-phenyl-propionic acid], the pIC50 was greater than 5.30. Compound `Cc1ccc(C(=O)N(Cc2cccc(-c3cc4ccccc4o3)c2)[C@@H](Cc2ccccc2)C(=O)O)c(C)c1` [compound #31, (2s)-2-[(3-Benzofuran-2-yl-benzyl)-(2,4-dimethyl-benzoyl)-amino]-3-phenyl-propionic acid] has a pIC50 greater than 5.30. In the case of `COc1cc(C)c(S(=O)(=O)N(Cc2ccc(-c3cc4ccccc4o3)cc2)[C@@H](Cc2ccc(O)cc2)C(=O)O)c(C)c1C` [compound #32, (2s)-2-[(4-Benzofuran-2-yl-benzyl)-(4-methoxy-2,3,6-trimethyl-benzenesulfonyl)-amino]-3-(4-hydroxy-phenyl)-propionic acid], the pIC50 was greater than 5.30. For `O=C(O)[C@H](Cc1ccc(O)cc1)N(Cc1ccc(-c2cc3ccccc3o2)cc1)C(=O)c1ccc(Cl)cc1Cl` [compound #33, (2s)-2-[(4-Benzofuran-2-yl-benzyl)-(2,4-dichloro-benzoyl)-amino]-3-(4-hydroxy-phenyl)-propionic acid], the pIC50 was greater than 5.30. Compound `Cc1cc(Cl)ccc1C(=O)N(Cc1cccc(Br)c1)[C@@H](Cc1ccccc1)C(=O)O` [compound #34, (2s)-2-[(3-Bromo-benzyl)-(4-chloro-2-methyl-benzoyl)-amino]-3-phenyl-propionic acid] has a pIC50 greater than 5.30. `O=C(O)[C@H](Cc1ccccc1)N(Cc1cccc(Br)c1)C(=O)c1ccc(Cl)cc1I` [compound #35, (2s)-2-[(3-Bromo-benzyl)-(4-chloro-2-iodo-benzoyl)-amino]-3-phenyl-propionic acid] showed a pIC50 greater than 5.30. `O=C(O)[C@H](Cc1ccccc1)N(Cc1cccc(-c2cc3ccccc3o2)c1)C(=O)Cc1ccc(Cl)cc1Cl` [compound #37, (2s)-2-{(3-Benzofuran-2-yl-benzyl)-[(2,4-dichloro-phenyl)-acetyl]-amino}-3-phenyl-propionic acid] gave a pIC50 greater than 5.30. With `O=C(O)[C@H](Cc1ccccc1)N(Cc1ccc(-c2cc3ccccc3o2)cc1)c1ccc(Cl)cc1Cl` [compound #38, (2s)-2-[(4-Benzofuran-2-yl-benzyl)-(2,4-dichloro-phenyl)-amino]-3-phenyl-propionic acid] the pIC50 was greater than 5.30. In the case of `O=C(O)[C@H](Cc1ccccc1)N(Cc1ccc2ccccc2c1)C(=O)c1ccc(Cl)cc1Cl` [compound #39, (2s)-2-[(2,4-Dichloro-benzoyl)-naphthalen-2-ylmethyl-amino]-3-phenyl-propionic acid], the pIC50 was greater than 5.30. `O=C1c2ccccc2C(=O)c2cc(CN(C(=O)c3ccc(Cl)cc3Cl)[C@@H](Cc3ccccc3)C(=O)O)ccc21` [compound #40, (2s)-2-[(2,4-Dichloro-benzoyl)-(9,10-dioxo-9,10-dihydro-anthracen-2-ylmethyl)-amino]-3-phenyl-propionic acid] gave a pIC50 greater than 5.30. `O=C(c1cccc(Cl)c1)c1cccc(CN(C(=O)c2ccc(Cl)cc2Cl)[C@@H](Cc2ccccc2)C(=O)O)c1` [compound #41, (2s)-2-[[3-(3-Chloro-benzoyl)-benzyl]-(2,4-dichloro-benzoyl)-amino]-3-phenyl-propionic acid] showed a pIC50 greater than 5.30. `O=C(c1cccc(CN(C(=O)c2ccc(Cl)cc2Cl)[C@@H](Cc2ccccc2)C(=O)O)c1)c1ccc(F)cc1F` [compound #42, (2s)-2-{(2,4-Dichloro-benzoyl)-[3-(2,4-difluoro-benzoyl)-benzyl]-amino}-3-phenyl-propionic acid] gave a pIC50 greater than 5.30. With `Cc1onc(-c2ccccc2Cl)c1C(=O)c1cccc(CN(C(=O)c2ccc(Cl)cc2Cl)[C@@H](Cc2ccccc2)C(=O)O)c1` [compound #43, (2s)-2-[{3-[3-(2-Chloro-phenyl)-5-methyl-isoxazole-4-carbonyl]-benzyl}-(2,4-dichloro-benzoyl)-amino]-3-phenyl-propionic acid] the pIC50 was greater than 5.30. `O=C(c1cccc(CN(C(=O)c2ccc(Cl)cc2Cl)[C@@H](Cc2ccccc2)C(=O)O)c1)c1ccc(Cl)cc1Cl` [compound #44, (2s)-2-{(2,4-Dichloro-benzoyl)-[3-(2,4-dichloro-benzoyl)-benzyl]-amino}-3-phenyl-propionic acid] showed a pIC50 greater than 5.30. Compound `O=C(O)[C@H](Cc1ccccc1)N(Cc1cccc(-c2nc3ccccc3o2)c1)C(=O)c1ccc(Cl)cc1Cl` [compound #45, (2s)-2-[(3-Benzooxazol-2-yl-benzyl)-(2,4-dichloro-benzoyl)-amino]-3-phenyl-propionic acid] has a pIC50 greater than 5.30. `CCc1cc(Cl)ccc1C(=O)N(Cc1cccc(Br)c1)[C@@H](Cc1ccccc1)C(=O)O` [compound #46, (2s)-2-[(3-Bromo-benzyl)-(4-chloro-2-ethyl-benzoyl)-amino]-3-phenyl-propionic acid] gave a pIC50 greater than 5.30. For `O=C(O)[C@H](CC1CCCCC1)N(Cc1ccc(-c2cc3ccccc3o2)cc1)C(=O)c1ccc(Cl)cc1Cl` [compound #47, (2s)-2-[(4-Benzofuran-2-yl-benzyl)-(2,4-dichloro-benzoyl)-amino]-3-cyclohexyl-propionic acid], the pIC50 was greater than 5.30. Compound `O=C(O)[C@H](Cc1ccccc1)N(Cc1cccc(-c2cc3ccccc3o2)c1)C(=O)c1ccc(Cl)cc1Br` [compound #49, (2s)-2-[(3-Benzofuran-2-yl-benzyl)-(2-bromo-4-chloro-benzoyl)-amino]-3-phenyl-propionic acid] has a pIC50 greater than 5.30. In the case of `C=Cc1cc(Cl)ccc1C(=O)N(Cc1cccc(Br)c1)[C@@H](Cc1ccccc1)C(=O)O` [compound #50, (2s)-2-[(3-Bromo-benzyl)-(4-chloro-2-vinyl-benzoyl)-amino]-3-phenyl-propionic acid], the pIC50 was greater than 5.30. Compound `O=C(O)[C@H](Cc1ccccc1)N(Cc1cccc(Cl)c1)C(=O)c1ccc(Cl)cc1Cl` [compound #52, (2s)-2-[(3-Chloro-benzyl)-(2,4-dichloro-benzoyl)-amino]-3-phenyl-propionic acid] has a pIC50 greater than 5.30. `O=C(O)[C@H](Cc1ccccc1)N(Cc1ccc(-c2cccc(Cl)c2)o1)C(=O)c1ccccc1Cl` [compound #55, (2s)-2-{(2-Chloro-benzoyl)-[5-(3-chloro-phenyl)-furan-2-ylmethyl]-amino}-3-phenyl-propionic acid] was tested, and the pIC50 was 4.70 to 5.30. `O=C(O)[C@H](Cc1ccccc1)N(Cc1ccc(-c2cccc(C(F)(F)F)c2)o1)C(=O)c1ccc(Cl)cc1Cl` [compound #56, (2s)-2-{(2,4-Dichloro-benzoyl)-[5-(3-trifluoromethyl-phenyl)-furan-2-ylmethyl]-amino}-3-phenyl-propionic acid] was tested, and the pIC50 was greater than 5.30. For `O=C(O)[C@H](Cc1ccccc1)N(Cc1ccc(Br)o1)C(=O)c1ccc(Cl)cc1Cl` [compound #57, (2s)-2-[(5-Bromo-furan-2-ylmethyl)-(2,4-dichloro-benzoyl)-amino]-3-phenyl-propionic acid], the pIC50 was 4.70 to 5.30. Work on `O=C(O)[C@H](Cc1ccccc1)N(Cc1ccc(-c2cc3ccccc3o2)o1)C(=O)c1ccc(Cl)cc1Cl` [compound #58, (2s)-2-[(5-Benzofuran-2-yl-furan-2-ylmethyl)-(2,4-dichloro-benzoyl)-amino]-3-phenyl-propionic acid] yielded a pIC50 greater than 5.30.
